Experimental data published in US10072011B2, “Substituted bridged urea analogs as sirtuin modulators” (GlaxoSmithKline Intellectual Property (No.2) Limited, priority 2014, dated 2018).
Read-outs that look alike come from different tables or passages of the source.

Molecular target: T1, SIRT1 (Homo sapiens, UniProt Q96EB6)
T1 sequence (Q96EB6 1-747): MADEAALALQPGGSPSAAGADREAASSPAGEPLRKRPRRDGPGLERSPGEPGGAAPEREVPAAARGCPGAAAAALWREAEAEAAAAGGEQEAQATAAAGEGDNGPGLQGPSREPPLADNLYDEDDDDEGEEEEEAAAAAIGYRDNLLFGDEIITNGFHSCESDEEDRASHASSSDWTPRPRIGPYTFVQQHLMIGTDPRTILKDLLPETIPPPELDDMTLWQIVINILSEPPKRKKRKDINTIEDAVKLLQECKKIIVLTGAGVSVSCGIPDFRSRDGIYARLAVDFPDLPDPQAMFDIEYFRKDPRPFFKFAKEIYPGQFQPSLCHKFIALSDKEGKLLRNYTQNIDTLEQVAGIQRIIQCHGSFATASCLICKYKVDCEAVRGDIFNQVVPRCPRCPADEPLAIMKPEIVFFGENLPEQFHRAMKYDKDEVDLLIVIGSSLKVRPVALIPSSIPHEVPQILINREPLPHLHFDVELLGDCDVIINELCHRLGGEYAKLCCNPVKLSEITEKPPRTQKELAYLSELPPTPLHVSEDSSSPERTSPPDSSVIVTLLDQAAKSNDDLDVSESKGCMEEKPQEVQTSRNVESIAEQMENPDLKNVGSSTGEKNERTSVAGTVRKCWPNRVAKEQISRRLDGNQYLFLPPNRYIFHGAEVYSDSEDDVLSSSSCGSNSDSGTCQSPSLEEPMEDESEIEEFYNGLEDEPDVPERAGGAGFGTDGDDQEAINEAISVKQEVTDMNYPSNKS
Test: Trp mass spectrometry assay of SIRT1 activation (Ac-R-H-K-K(Ac)-W-NH2 peptide)
Assay type: biochemical
Settings: for Emax: 25 min, read-out: TRP MAX RESP (percent maximum fold activation)
Summary of the method: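 Mass spectrometry read-out (OAADPR formed, or deacetylated Trp peptide) after a 25 min NAD-dependent deacetylation by E. coli-expressed His-SIRT1, stopped with formic acid.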

[1] = Trp peptide 0.5 μM, 120 μM βNAD+, 10 nM SIRT1, 25 min at 25° C., relative to control (100%)
[2] = Trp peptide 0.5 μM, 120 μM βNAD+, 10 nM SIRT1, 25 min at 25° C.

| Emax [1] [%] | TRP Activity (EC1.5, concentration of test compound that results in 150% activation of SIRT1) [2] | SMILES | Emax [%] |
| --- | --- | --- | --- |
| > 150 | A (EC1.5<1 μM) | C#CCNC(=O)c1ccc2c(n1)N(C(=O)Nc1ccccn1)[C@H]1CCN2C1 [Example 99, (4S)—N7-(prop-2-yn-1-yl)-N5-(pyridin-2-yl)-3,4-dihydro-1,4-methanopyrido[2,3-b][1,4]diazepine-5,7(2H)-dicarboxamide] |  |
| > 150 | A (EC1.5<1 μM) | CC#CCNC(=O)c1ccc2c(n1)N(C(=O)Nc1ccccn1)[C@H]1CCN2C1 [Example 109, (4S)—N7-(but-2-yn-1-yl)-N5-(pyridin-2-yl)-3,4-dihydro-1,4-methanopyrido[2,3-b][1,4]diazepine-5,7(2H)-dicarboxamide] |  |
| > 150 | A (EC1.5<1 μM) | Cc1ccnc(NC(=O)N2c3nc(C(=O)NCC4CC4)ccc3N3CC[C@H]2C3)c1 [Example 110, (4S)—N7-(cyclopropylmethyl)-N5-(4-methylpyridin-2-yl)-3,4-dihydro-1,4-methanopyrido[2,3-b][1,4]diazepine-5,7(2H)-dicarboxamide] |  |
| > 150 | A (EC1.5<1 μM) | Cc1ccc(NC(=O)N2c3nc(C(=O)NCC4CC4)ccc3N3CC[C@H]2C3)nc1 [Example 111, (4S)—N7-(cyclopropylmethyl)-N5-(5-methylpyridin-2-yl)-3,4-dihydro-1,4-methanopyrido[2,3-b][1,4]diazepine-5,7(2H)-dicarboxamide] |  |
| > 150 | A (EC1.5<1 μM) | Cc1nc(NC(=O)N2c3nc(C(=O)NCC4CC4)ccc3N3CC[C@H]2C3)ccc1F [Example 112, (4S)—N7-(cyclopropylmethyl)-N5-(5-fluoro-6-methylpyridin-2-yl)-3,4-dihydro-1,4-methanopyrido[2,3-b][1,4]diazepine-5,7(2H)-dicarboxamide] |  |
| > 150 | B (EC1.5 1-25 μM) | COc1cc(NC(=O)N2c3nc(C(=O)NCC4CC4)ccc3N3CC[C@H]2C3)ncn1 [Example 113, (4S)—N7-(cyclopropylmethyl)-N5-(6-methoxypyrimidin-4-yl)-3,4-dihydro-1,4-methanopyrido[2,3-b][1,4]diazepine-5,7(2H)-dicarboxamide] |  |
| > 150 | B (EC1.5 1-25 μM) | Cc1ncc(-c2ccnc(NC(=O)N3c4nc(C(=O)NCC5CC5)ccc4N4CC[C@H]3C4)c2)o1 [Example 114, (4S)—N7-(cyclopropylmethyl)-N5-(4-(2-methyloxazol-5-yl)pyridin-2-yl)-3,4-dihydro-1,4-methanopyrido[2,3-b][1,4]diazepine-5,7(2H)-dicarboxamide] |  |
| > 150 | B (EC1.5 1-25 μM) | Cc1ncc(-c2ccnc(NC(=O)N3c4nc(C(=O)NC5CC5)ccc4N4CC[C@H]3C4)c2)o1 [Example 123, (4S)—N7-cyclopropyl-N5-(4-(2-methyloxazol-5-yl)pyridin-2-yl)-3,4-dihydro-1,4-methanopyrido[2,3-b][1,4]diazepine-5,7(2H)-dicarboxamide] |  |

The remaining lines, values behind:

| SMILES | Emax [1] [%] | TRP Activity (EC1.5, concentration of test compound that results in 150% activation of SIRT1) [2] | Emax [%] |
| --- | --- | --- | --- |
| C[C@@H](NC(=O)c1ccc2c(n1)N(C(=O)Nc1cccn(C)c1=O)[C@H]1CCN2C1)C(F)(F)F [Example 98, (4S)—N5-(1-methyl-2-oxo-1,2-dihydropyridin-3-yl)-N7-((R)-1,1,1-trifluoropropan-2-yl)-3,4-dihydro-1,4-methanopyrido[2,3-b][1,4]diazepine-5,7(2H)-dicarboxamide] | > 150 | A (EC1.5<1 μM) |  |
| CC(C)(C#N)NC(=O)c1ccc2c(n1)N(C(=O)Nc1ccccn1)[C@H]1CCN2C1 [Example 104, (4S)—N7-(2-cyanopropan-2-yl)-N5-(pyridin-2-yl)-3,4-dihydro-1,4-methanopyrido[2,3-b][1,4]diazepine-5,7(2H)-dicarboxamide] | > 150 | B (EC1.5 1-25 μM) |  |
| C#C[C@@H](C)NC(=O)c1ccc2c(n1)N(C(=O)Nc1ccccn1)[C@H]1CCN2C1 [Example 105, (4S)—N7-((R)-but-3-yn-2-yl)-N5-(pyridin-2-yl)-3,4-dihydro-1,4-methanopyrido[2,3-b][1,4]diazepine-5,7(2H)-dicarboxamide] | > 150 | A (EC1.5<1 μM) |  |
| O=C(NCc1ccccc1)c1ccc2c(n1)N(C(=O)Nc1ccccn1)[C@H]1CCN2C1 [Example 106, (4S)—N7-benzyl-N5-(pyridin-2-yl)-3,4-dihydro-1,4-methanopyrido[2,3-b][1,4]diazepine-5,7(2H)-dicarboxamide] | > 150 | A (EC1.5<1 μM) |  |
| N#CCNC(=O)c1ccc2c(n1)N(C(=O)Nc1ccccn1)[C@H]1CCN2C1 [Example 107, (4S)—N7-(cyanomethyl)-N5-(pyridin-2-yl)-3,4-dihydro-1,4-methanopyrido[2,3-b][1,4]diazepine-5,7(2H)-dicarboxamide] |  | A (EC1.5<1 μM) | > 150 |
| C[Si](C)(C)CNC(=O)c1ccc2c(n1)N(C(=O)Nc1ccccn1)[C@H]1CCN2C1 [Example 108, (4S)—N5-(pyridin-2-yl)-N7-((trimethylsilyl)methyl)-3,4-dihydro-1,4-methanopyrido[2,3-b][1,4]diazepine-5,7(2H)-dicarboxamide] | > 150 | A (EC1.5<1 μM) |  |
| Cc1ncc(-c2ccnc(NC(=O)N3c4nc(C(=O)NCC(F)(F)F)ccc4N4CC[C@H]3C4)c2)o1 [Example 115, (4S)—N5-(4-(2-methyloxazol-5-yl)pyridin-2-yl)-N7-(2,2,2-trifluoroethyl)-3,4-dihydro-1,4-methanopyrido[2,3-b][1,4]diazepine-5,7(2H)-dicarboxamide] | > 150 | A (EC1.5<1 μM) |  |
| O=C(NCC(F)F)c1ccc2c(n1)N(C(=O)Nc1ccccn1)[C@H]1CCN2C1 [Example 116, (4S)—N7-(2,2-difluoroethyl)-N5-(pyridin-2-yl)-3,4-dihydro-1,4-methanopyrido[2,3-b][1,4]diazepine-5,7(2H)-dicarboxamide] |  | A (EC1.5<1 μM) | > 150 |
| O=C(NCC(F)(F)CO)c1ccc2c(n1)N(C(=O)Nc1ccccn1)[C@H]1CCN2C1 [Example 117, (4S)—N7-(2,2-difluoro-3-hydroxypropyl)-N5-(pyridin-2-yl)-3,4-dihydro-1,4-methanopyrido[2,3-b][1,4]diazepine-5,7(2H)-dicarboxamide] | > 150 | A (EC1.5<1 μM) |  |
| O=C(NCC(F)(F)F)c1ccc2c(n1)N(C(=O)Nc1cnc(OC[C@@H](O)CO)cn1)[C@H]1CCN2C1 [Example 118, (4S)—N5-(5-((S)-2,3-dihydroxypropoxy)pyrazin-2-yl)-N7-(2,2,2-trifluoroethyl)-3,4-dihydro-1,4-methanopyrido[2,3-b][1,4]diazepine-5,7(2H)-dicarboxamide] | > 150 | B (EC1.5 1-25 μM) |  |
| Cn1cnc(NC(=O)N2c3nc(C(=O)NCC(F)(F)F)ccc3N3CC[C@H]2C3)cc1=O [Example 120, (4S)—N5-(1-methyl-6-oxo-1,6-dihydropyrimidin-4-yl)-N7-(2,2,2-trifluoroethyl)-3,4-dihydro-1,4-methanopyrido[2,3-b][1,4]diazepine-5,7(2H)-dicarboxamide] | > 150 | B (EC1.5 1-25 μM) |  |
| Cn1nccc(NC(=O)N2c3nc(C(=O)NCC(F)(F)F)ccc3N3CC[C@H]2C3)c1=O [Example 121, (4S)—N5-(2-methyl-3-oxo-2,3-dihydropyridazin-4-yl)-N7-(2,2,2-trifluoroethyl)-3,4-dihydro-1,4-methanopyrido[2,3-b][1,4]diazepine-5,7(2H)-dicarboxamide] |  | A (EC1.5<1 μM) | > 150 |
| C[C@@H](NC(=O)c1ccc2c(n1)N(C(=O)Nc1ccnn(C)c1=O)[C@H]1CCN2C1)C(F)(F)F [Example 122, (4S)—N5-(2-methyl-3-oxo-2,3-dihydropyridazin-4-yl)-N7-((R)-1,1,1-trifluoropropan-2-yl)-3,4-dihydro-1,4-methanopyrido[2,3-b][1,4]diazepine-5,7(2H)-dicarboxamide] | > 150 | A (EC1.5<1 μM) |  |
